Assay results as given in patent US20260078103A1, “ISOQUINOLONES AS PI3K INHIBITORS” (OnKure, Inc., priority 2022, published 2026).
Read-outs that look alike come from different tables or passages of the source.

What was measured:
Assay type in all cases: cell-based
[1] = tested on: T47D cells expressing mutant PI3Ka (H1047R); assay: In vitro cell proliferation, T47D cells (CellTiter-Glo); conditions: inhibition of proliferation, read-out: Avg T-47D EC50
In short: (§1)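 Proliferation was read by CellTiter-Glo luminescence after 72 h of exposure to 10-point compound dilutions at 37 °C and 5% CO2. T47D (RPMI, 10% FBS, insulin 0.2 units/mL) and SKBR3 (McCoys 5a, 10% FBS) cells were seeded at 1,500 cells/well. EC50 was fitted from inhibition relative to DMSO and 10 uM Alpelisib.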

[2] = tested on: SKBR3 cells express WT PI3Ka; assay: In vitro cell proliferation, SKBR3 cells (CellTiter-Glo); conditions: inhibition of proliferation
In short: as §1

[3] = tested on: phosphorylation of AKT (pAKT) in T47D cells expressing mutant PI3Ka (H1047R); assay: In vitro cell pAKT (Ser473) HTRF, T47D cells
In short: (§2)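 Cells seeded on plates pre-stamped with 10-point compound dilutions, then grown 6 h at 37 °C (T47D in RPMI/10% FBS/insulin; SKBR3 in McCoy's 5a/10% FBS). Lysates read for pAKT Ser473 by HTRF after overnight antibody incubation. Inhibition normalised to 0.1% DMSO and 10 uM alpelisib; IC50 by four-parameter fit.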

[4] = tested on: phosphorylation of AKT (pAKT) in SKBR3 cells express WT PI3Ka; assay: In vitro cell pAKT (Ser473) HTRF, SKBR3 cells
In short: as §2

[5] = cellular pAKT, T47D cells, mutant PI3Ka (H1047R), 6 hours, read-out: Avg T-47D IC50
[6] = Homo sapiens, SK-BR-3, 6 h, cellular pAKT
[7] = Homo sapiens, T47D, 6 h, cellular pAKT, T47D cells, mutant PI3Ka (H1047R), 6 hours, read-out: Avg T-47D IC50

Structure (SMILES) | EC50 ([1]; 72 hours) | EC50 ([2]; Homo sapiens, SK-BR-3, 72 h) | IC50 [3, 5] | IC50 [4, 6] | EC50 ([2]; 72 hours) | IC50 ([4]; cellular pAKT, 6 hours) | EC50 ([1]; Homo sapiens, T47D, 72 h) | IC50 [3, 7] | IC50 ([3]; Homo sapiens, T47D, 6 h, read-out: Avg T-47D IC50, cellular pAKT, T47D cells, mutant PI3Ka (H1047R), 6 hours) | IC50 ([4]; Homo sapiens, SK-BR-3, cellular pAKT, 6 hours)
COC1(C)CN(c2cc3c(C(C)Nc4ccccc4C(=O)O)cc(C)cc3c(=O)n2C)C1 (single isomer, unassigned) [Example 183] | > 15 µM | > 15 µM | > 15 µM | > 15 µM |  |  |  |  |  | 
Cc1cc([C@@H](C)Nc2ccccc2C(=O)O)c2cc(C3CC3(F)F)n(C)c(=O)c2c1 (single isomer, unassigned) [Example 385] | 0.001 to 0.5 µM |  | 0.001 to 0.5 µM |  | > 15 µM | > 15 µM |  |  |  | 
Cc1cc([C@@H](C)Nc2ccccc2C(=O)O)c2cc(-c3cnc(C(C)(C)F)c(F)c3)n(C)c(=O)c2c1 [Example 268] |  | > 15 µM |  | > 15 µM |  |  | 0.001 to 0.5 µM | 0.001 to 0.5 µM |  | 
C[C@@H](Nc1ccccc1C(=O)O)c1cc(F)cc2c(=O)n(C)c(-c3cnc(OC4CC4)s3)cc12 [Example 345] |  | > 15 µM |  | > 15 µM |  |  | 0.001 to 0.5 µM | 0.001 to 0.5 µM |  | 
Cc1cc([C@@H](C)Nc2ccccc2C(=O)O)c2cc(N3CCC(C)(O)CC3)n(C)c(=O)c2c1 [Example 260] |  | > 15 µM |  | > 15 µM |  |  | 0.5 to 2 µM | 2 to 15 µM |  | 
CC(Nc1ccccc1C(=O)O)c1cc(F)cc2c(=O)n(C)c(N3C4CCC3CN(CC(F)(F)F)C4)c(F)c12 (single isomer, unassigned) [Example 567] | 0.001 to 0.5 µM |  | 0.001 to 0.5 µM |  | 2 to 15 µM | 2 to 15 µM |  |  |  | 
Cc1cc(C(C)Nc2ccccc2C(=O)O)c2cc(N3CCN(C(=O)CC(C)C)CC3)n(C)c(=O)c2c1 (single isomer, unassigned) [Example 33, 2-((1-(2,7-dimethyl-3-(4-(3-methylbutanoyl)piperazin-1-yl)-1-oxo-1,2-dihydroisoquinolin-5-yl)ethyl)amino)benzoic acid] | 0.001 to 0.5 µM |  | 0.001 to 0.5 µM |  | > 15 µM | > 15 µM |  |  |  | 
Cc1cc(C(C)Nc2ccccc2C(=O)O)c2cc(N3CCN4CCC[C@H]4C3)n(C)c(=O)c2c1 (single isomer, unassigned) [Example 139] | 0.5 to 2 µM |  | 0.5 to 2 µM |  | > 15 µM | > 15 µM |  |  |  | 
Cc1cc(C(C)Nc2ccccc2C(=O)O)c2cc(N3CCN4CCC[C@@H]4C3)n(C)c(=O)c2c1 (single isomer, unassigned) [Example 137] |  | > 15 µM |  | > 15 µM |  |  | 0.5 to 2 µM | 0.001 to 0.5 µM |  | 
CON1CCN(c2cc3c([C@@H](C)Nc4ccccc4C(=O)O)cc(C)cc3c(=O)n2C)CC1 [Example 158] |  | > 15 µM |  | > 15 µM |  |  | 0.001 to 0.5 µM | 0.001 to 0.5 µM |  | 
C[C@@H](Nc1cccc(F)c1C(=O)O)c1cc(F)cc2c(=O)n(C)c(C3CC3(F)F)cc12 (single isomer, unassigned) [Example 480] | 0.5 to 2 µM |  | 0.001 to 0.5 µM |  | > 15 µM | > 15 µM |  |  |  | 
CCN1CCN(c2cc3c([C@@H](C)Nc4ccccc4C(=O)O)cc(C)cc3c(=O)n2C)CC1C(F)(F)F (single isomer, unassigned) [Example 266] |  |  |  | > 15 µM | > 15 µM |  | 0.001 to 0.5 µM | 0.001 to 0.5 µM |  | 
Cc1ncc(-c2ncc(-c3cc4c([C@@H](C)Nc5cccc(F)c5C(=O)O)cc(F)cc4c(=O)n3C)cc2F)cc1F [Example 403] |  | > 15 µM |  | > 15 µM |  |  | 0.001 to 0.5 µM | 0.001 to 0.5 µM |  | 
Cc1cc([C@@H](C)Nc2ccccc2C(=O)O)c2cc(-c3cc(F)c4nn(C)cc4c3)n(C)c(=O)c2c1 [Example 365] | 0.001 to 0.5 µM |  | 0.001 to 0.5 µM |  | > 15 µM | > 15 µM |  |  |  | 
Cc1cc([C@@H](C)Nc2ccc(F)cc2C(=O)O)c2cc(N3CCN(CC(F)(F)F)CC3)n(C)c(=O)c2c1 [Example 259] | 0.001 to 0.5 µM |  | 0.001 to 0.5 µM |  | > 15 µM | 2 to 15 µM |  |  |  | 
Cc1cc([C@@H](C)Nc2ccccc2C(=O)O)c2cc(N3CCN(CCC(F)(F)F)CC3)n(C)c(=O)c2c1 [Example 264] | 0.001 to 0.5 µM |  | 0.001 to 0.5 µM |  | > 15 µM | > 15 µM |  |  |  | 
Cc1cc(C(C)Nc2ccccc2C(=O)O)c2cc(-c3ccc(OC4CC(F)C4)nc3)n(C)c(=O)c2c1 (stereo not shown) [Example 217] | 0.001 to 0.5 µM |  | 0.001 to 0.5 µM |  | 2 to 15 µM | > 15 µM |  |  |  | 

Structure (SMILES) | EC50 ([1]; 72 hours) | EC50 ([2]; Homo sapiens, SK-BR-3, 72 h) | IC50 [3, 5] | IC50 [4, 6] | EC50 ([2]; 72 hours) | IC50 ([4]; cellular pAKT, 6 hours) | EC50 ([1]; Homo sapiens, T47D, 72 h) | IC50 [3, 7] | IC50 ([3]; Homo sapiens, T47D, 6 h, read-out: Avg T-47D IC50, cellular pAKT, T47D cells, mutant PI3Ka (H1047R), 6 hours) | IC50 ([4]; Homo sapiens, SK-BR-3, cellular pAKT, 6 hours)
Cc1cc([C@@H](C)Nc2ccccc2C(=O)O)c2cc([C@H]3C[C@@H]3C(C)(C)O)n(C)c(=O)c2c1 (single isomer, unassigned) [Example 374] | 0.001 to 0.5 µM |  | 0.001 to 0.5 µM |  | > 15 µM | > 15 µM |  |  |  | 
CC(Nc1cccc(F)c1C(=O)O)c1cc(F)cc2c(=O)n(C)c(-c3ccc(OC4CC(F)C4)nc3)cc12 (stereo not shown) [Example 407] | 0.001 to 0.5 µM |  | 0.001 to 0.5 µM |  | > 15 µM | > 15 µM |  |  |  | 
Cc1cc([C@@H](C)Nc2ccccc2C(=O)O)c2cc(N3CC[C@]4(CCCN(CC(F)(F)F)C4)C3)n(C)c(=O)c2c1 [Example 99] |  | 2 to 15 µM |  | > 15 µM |  |  | 0.001 to 0.5 µM | 0.001 to 0.5 µM |  | 
C[C@@H](Nc1ccccc1C(=O)O)c1cc(F)cc2c(=O)n(C)c(-c3cc(F)c4nn(C)cc4c3)cc12 [Example 483] |  | > 15 µM |  | > 15 µM |  |  | 0.5 to 2 µM | 0.001 to 0.5 µM |  | 
Cc1cc([C@@H](C)Nc2ccccc2C(=O)O)c2cc(N3CCN(c4cn(C)nn4)CC3)n(C)c(=O)c2c1 [Example 254] | 2 to 15 µM |  | 2 to 15 µM |  | > 15 µM | > 15 µM |  |  |  | 
Cc1cc([C@@H](C)Nc2ccc(Cl)nc2C(=O)O)c2cc(-c3ccc(-c4ccc(F)cc4)nc3)n(C)c(=O)c2c1 [Example 26, (R)-6-chloro-3-((1-(3-(6-(4-fluorophenyl)pyridin-3-yl)-2,7-dimethyl-1-oxo-1,2-dihydroisoquinolin-5-yl)ethyl)amino)picolinic acid] |  | 2 to 15 µM |  | 2 to 15 µM |  |  | 0.001 to 0.5 µM | 0.001 to 0.5 µM |  | 
C[C@@H](Nc1cccc(F)c1C(=O)O)c1cc(F)cc2c(=O)n(C)c(C3C[C@@H]3C(F)F)cc12 (single isomer, unassigned) [Example 475] |  | > 15 µM |  | > 15 µM |  |  | 0.5 to 2 µM | 0.001 to 0.5 µM |  | 
Cc1cc([C@@H](C)Nc2ccccc2C(=O)O)c2cc(-c3cnc(C(F)(F)F)cn3)n(C)c(=O)c2c1 [Example 382] |  | > 15 µM |  | > 15 µM |  |  | 0.001 to 0.5 µM | 0.001 to 0.5 µM |  | 
Cc1cc([C@@H](C)Nc2ccccc2C(=O)O)c2cc(-c3cnn(C(C)(C)C#N)c3)n(C)c(=O)c2c1 [Example 273] |  | > 15 µM |  | > 15 µM |  |  | 0.5 to 2 µM | 0.001 to 0.5 µM |  | 
Cc1cc(C(C)Nc2ccc(Cl)nc2C(=O)O)c2cc(N3CCC(C)(C)CC3)n(C)c(=O)c2c1 (single isomer, unassigned) [Example 4, 6-chloro-3-((1-(3-(4,4-dimethylpiperidin-1-yl)-2,7-dimethyl-1-oxo-1,2-dihydroisoquinolin-5-yl)ethyl)amino)picolinic acid] | 2 to 15 µM |  | 2 to 15 µM |  | 2 to 15 µM | > 15 µM |  |  |  | 
Cc1cc(C(C)Nc2ccccc2C(=O)O)c2cc(N3CC4(CCN(CC(F)(F)F)C4)C3)n(C)c(=O)c2c1 (stereo not shown) [Example 171] | 0.5 to 2 µM |  | 0.001 to 0.5 µM |  | > 15 µM | > 15 µM |  |  |  | 
Cc1cc([C@@H](C)Nc2ccccc2C(=O)O)c2cc(-c3cnc4c(c3)CCC4F)n(C)c(=O)c2c1 (stereo partly shown) [Example 248] |  | > 15 µM |  | > 15 µM |  |  | 0.5 to 2 µM | 0.001 to 0.5 µM |  | 
Cc1cc([C@@H](C)Nc2ccccc2C(=O)O)c2cc(N3CCn4c(C)nnc4C3)n(C)c(=O)c2c1 [Example 418] |  | > 15 µM |  | > 15 µM |  |  | > 15 µM | > 15 µM |  | 
CC(=O)N1CCN(c2cc3c([C@@H](C)Nc4ccccc4C(=O)O)cc(C)cc3c(=O)n2C)CC1 [Example 498] |  | > 15 µM |  | > 15 µM |  |  | 0.5 to 2 µM | 0.5 to 2 µM |  | 
Cc1ncc(-c2ncc(-c3cc4c([C@@H](C)Nc5ccccc5C(=O)O)cc(F)cc4c(=O)n3C)cc2F)s1 [Example 519] | 0.001 to 0.5 µM |  | 0.001 to 0.5 µM |  | > 15 µM | > 15 µM |  |  |  | 
Cc1cc([C@@H](C)Nc2ccccc2C(=O)O)c2cc(N3CCN(Cc4cccc(C)n4)CC3)n(C)c(=O)c2c1 [Example 176] |  | 2 to 15 µM |  | > 15 µM |  |  | 0.001 to 0.5 µM | 0.001 to 0.5 µM |  | 
CCn1c(N2CCC(C)(C)CC2)cc2c(C(C)Nc3ccccc3C(=O)O)cc(C)cc2c1=O (stereo not shown) [Example 29, 2-((1-(3-(4,4-dimethylpiperidin-1-yl)-2-ethyl-7-methyl-1-oxo-1,2-dihydroisoquinolin-5-yl)ethyl)amino)benzoic acid] |  | > 15 µM |  |  |  |  | 2 to 15 µM |  | > 15 µM | > 15 µM
